ChEMBL document CHEMBL5252512, “Recent Progress in the Development of HIV-1 Protease Inhibitors for the Treatment of HIV/AIDS” (J Med Chem, 2016)

Assays:
[1] = tested on: Human immunodeficiency virus 1; assay: Antiviral activity against wild type HIV1 ERS104pre infected in human PBMC cells assessed as inhibition of virus-induced cytopathic effect measured after 7 days by MTT assay; assay type: functional, organism-based; details: Human immunodeficiency virus 1, ERS104pre, 168 h
[2] = tested on: Human immunodeficiency virus 1; assay: Antiviral activity against multidrug-resistant HIV1-TM infected in phytohemagglutinin-activated human PBMC cells assessed as inhibition of virus-induced cytopathic effect measured after 7 days by MTT assay; assay type: functional, organism-based; details: Human immunodeficiency virus 1, TM, 168 h
[3] = tested on: Human immunodeficiency virus 1; assay: Antiviral activity against multidrug-resistant HIV1-MM infected in phytohemagglutinin-activated human PBMC cells assessed as inhibition of virus-induced cytopathic effect measured after 7 days by MTT assay; assay type: functional, organism-based; details: Human immunodeficiency virus 1, MM, 168 h
[4] = tested on: Human immunodeficiency virus 1; assay: Antiviral activity against multidrug-resistant HIV1-JSL infected in phytohemagglutinin-activated human PBMC cells assessed as inhibition of virus-induced cytopathic effect measured after 7 days by MTT assay; assay type: functional, organism-based; details: Human immunodeficiency virus 1, JSL, 168 h
[5] = tested on: Human immunodeficiency virus 1; assay: Antiviral activity against multidrug-resistant HIV1-B infected in phytohemagglutinin-activated human PBMC cells assessed as inhibition of virus-induced cytopathic effect measured after 7 days by MTT assay; assay type: functional, organism-based; details: Human immunodeficiency virus 1, B, 168 h
[6] = tested on: Human immunodeficiency virus 1; assay: Antiviral activity against multidrug-resistant HIV1-C infected in phytohemagglutinin-activated human PBMC cells assessed as inhibition of virus-induced cytopathic effect measured after 7 days by MTT assay; assay type: functional, organism-based; details: Human immunodeficiency virus 1, C, 168 h
[7] = tested on: Human immunodeficiency virus 1; assay: Antiviral activity against multidrug-resistant HIV1-G infected in phytohemagglutinin-activated human PBMC cells assessed as inhibition of virus-induced cytopathic effect measured after 7 days by MTT assay; assay type: functional, organism-based; details: Human immunodeficiency virus 1, G, 168 h
[8] = tested on: Human immunodeficiency virus 1; assay: Ratio of EC50 for antiviral activity against HIV1-TM to EC50 for antiviral activity against wild type HIV1 ERS104pre; assay type: functional
[9] = tested on: Human immunodeficiency virus 1; assay: Ratio of EC50 for antiviral activity against HIV1-MM to EC50 for antiviral activity against wild type HIV1 ERS104pre; assay type: functional
[10] = tested on: Human immunodeficiency virus 1; assay: Ratio of EC50 for antiviral activity against HIV1-JSL to EC50 for antiviral activity against wild type HIV1 ERS104pre; assay type: functional
[11] = tested on: Human immunodeficiency virus 1; assay: Ratio of EC50 for antiviral activity against HIV1-B to EC50 for antiviral activity against wild type HIV1 ERS104pre; assay type: functional
[12] = tested on: Human immunodeficiency virus 1; assay: Ratio of EC50 for antiviral activity against HIV1-C to EC50 for antiviral activity against wild type HIV1 ERS104pre; assay type: functional
[13] = tested on: Human immunodeficiency virus 1; assay: Ratio of EC50 for antiviral activity against HIV1-G to EC50 for antiviral activity against wild type HIV1 ERS104pre; assay type: functional
[14] = tested on: Human immunodeficiency virus 1; assay: Antiviral activity against darunavir-resistant HIV1 10P infected in phytohemagglutinin-activated human PBMC cells assessed as inhibition of virus-induced cytopathic effect measured after 7 days by MTT assay; assay type: functional, organism-based; details: Human immunodeficiency virus 1, 10P, 168 h
[15] = tested on: Human immunodeficiency virus 1; assay: Antiviral activity against darunavir-resistant HIV1 20P infected in phytohemagglutinin-activated human PBMC cells assessed as inhibition of virus-induced cytopathic effect measured after 7 days by MTT assay; assay type: functional, organism-based; details: Human immunodeficiency virus 1, 20P, 168 h
[16] = tested on: Human immunodeficiency virus 1; assay: Ratio of EC50 for antiviral activity against darunavir-resistant HIV1 10P to EC50 for antiviral activity against wild type HIV1 ERS104pre; assay type: functional
[17] = tested on: Human immunodeficiency virus 1; assay: Ratio of EC50 for antiviral activity against darunavir-resistant HIV1 20P to EC50 for antiviral activity against wild type HIV1 ERS104pre; assay type: functional
[18] = biological target: T1, Human immunodeficiency virus type 1 protease (Human immunodeficiency virus 1, UniProt Q72874); assay: Binding affinity to HIV1 recombinant wild type protease expressed in Escherichia coli BL21(DE3) assessed as inhibition constant
[19] = tested on: Human immunodeficiency virus 1; assay: Antiviral activity against HIV1 LAI infected in human MT2 cells assessed as inhibition of virus-induced cytopathic effect by MTT assay; assay type: functional, organism-based; details: Human immunodeficiency virus 1, LAI
[20] = tested on: Human immunodeficiency virus 1; assay: Antiviral activity against wild type HIV1 r13205 infected in human MT4 cells expressing LTR and EGFP assessed as inhibition of virus-induced cytopathic effect by fluorescence microscopic analysis; assay type: functional, organism-based; details: Human immunodeficiency virus 1, r13205, MT4
[21] = tested on: Human immunodeficiency virus 1; assay: Antiviral activity against HIV1 T20760 infected in human MT4 cells expressing LTR and EGFP assessed as inhibition of virus-induced cytopathic effect by fluorescence microscopic analysis; assay type: functional, organism-based; details: Human immunodeficiency virus 1, T20760, MT4
[22] = tested on: Human immunodeficiency virus 1; assay: Antiviral activity against HIV1 T21055 infected in human MT4 cells expressing LTR and EGFP assessed as inhibition of virus-induced cytopathic effect by fluorescence microscopic analysis; assay type: functional, organism-based; details: Human immunodeficiency virus 1, T21055, MT4
[23] = tested on: Human immunodeficiency virus 1; assay: Antiviral activity against HIV1 T21217 infected in human MT4 cells expressing LTR and EGFP assessed as inhibition of virus-induced cytopathic effect by fluorescence microscopic analysis; assay type: functional, organism-based; details: Human immunodeficiency virus 1, T21217, MT4
[24] = tested on: Human immunodeficiency virus 1; assay: Antiviral activity against HIV1 T13436 infected in human MT4 cells expressing LTR and EGFP assessed as inhibition of virus-induced cytopathic effect by fluorescence microscopic analysis; assay type: functional, organism-based; details: Human immunodeficiency virus 1, T13436, MT4
[25] = tested on: Human immunodeficiency virus 1; assay: Antiviral activity against HIV1 T13572 infected in human MT4 cells expressing LTR and EGFP assessed as inhibition of virus-induced cytopathic effect by fluorescence microscopic analysis; assay type: functional, organism-based; details: Human immunodeficiency virus 1, T13572, MT4
[26] = tested on: Human immunodeficiency virus 1; assay: Antiviral activity against HIV1 T13632 infected in human MT4 cells expressing LTR and EGFP assessed as inhibition of virus-induced cytopathic effect by fluorescence microscopic analysis; assay type: functional, organism-based; details: Human immunodeficiency virus 1, T13632, MT4
[27] = tested on: Human immunodeficiency virus 1; assay: Antiviral activity against HIV1 T13717 infected in human MT4 cells expressing LTR and EGFP assessed as inhibition of virus-induced cytopathic effect by fluorescence microscopic analysis; assay type: functional, organism-based; details: Human immunodeficiency virus 1, T13717, MT4
[28] = tested on: Human immunodeficiency virus 1; assay: Ratio of EC50 for antiviral activity against HIV1-T20760 to EC50 for antiviral activity against wild type HIV1 r13205; assay type: functional
[29] = tested on: Human immunodeficiency virus 1; assay: Ratio of EC50 for antiviral activity against HIV1-T21055 to EC50 for antiviral activity against wild type HIV1 r13205; assay type: functional
[30] = tested on: Human immunodeficiency virus 1; assay: Ratio of EC50 for antiviral activity against HIV1-T21217 to EC50 for antiviral activity against wild type HIV1 r13205; assay type: functional
[31] = tested on: Human immunodeficiency virus 1; assay: Ratio of EC50 for antiviral activity against HIV1-T13436 to EC50 for antiviral activity against wild type HIV1 r13205; assay type: functional
[32] = tested on: Human immunodeficiency virus 1; assay: Ratio of EC50 for antiviral activity against HIV1-T13572 to EC50 for antiviral activity against wild type HIV1 r13205; assay type: functional
[33] = tested on: Human immunodeficiency virus 1; assay: Ratio of EC50 for antiviral activity against HIV1-T13632 to EC50 for antiviral activity against wild type HIV1 r13205; assay type: functional
[34] = tested on: Human immunodeficiency virus 1; assay: Ratio of EC50 for antiviral activity against HIV1-T13717 to EC50 for antiviral activity against wild type HIV1 r13205; assay type: functional
[35] = Lipophilicity, logP of the compound in Octanol/water by shake-flask method; assay type: physicochemical
[36] = Lipophilicity, logD of the compound in Octanol/buffer by shake-flask method; assay type: physicochemical
[37] = biological target: T1, Human immunodeficiency virus type 1 protease; assay: Binding affinity to HIV1 protease assessed as inhibition constant
[38] = AUC in rat at 10 mg/kg, po; assay type: ADME, organism-based; parameters: dose 10 mg/kg, route po; details: in vivo
[39] = Half life in rat at 1 mg/kg, iv; assay type: ADME, organism-based; details: in vivo
[40] = Clearance in rat at 2 mg/kg, iv; assay type: ADME, organism-based; details: in vivo
[41] = Clearance in dog at 1 mg/kg, iv; assay type: ADME, organism-based, Canis lupus familiaris; details: in vivo
[42] = Half life in dog at 1 mg/kg, iv; assay type: ADME, organism-based, Canis lupus familiaris; details: in vivo
[43] = Apparent permeability in rat astrocytes/rat pericytes/monkey endothelial cells triple cell co-culture system incubated for 30 mins by spectrophotometric analysis; assay type: ADME, cell-based

SMILES	EC50 [1]	EC50 [2]	EC50 [3]	EC50 [4]	EC50 [5]	EC50 [6]	EC50 [7]	Ratio EC50 [8]	Ratio EC50 [9]	Ratio EC50 [10]	Ratio EC50 [11]	Ratio EC50 [12]	Ratio EC50 [13]	EC50 [14]	EC50 [15]	Ratio EC50 [16]	Ratio EC50 [17]	EC50 [20]	EC50 [21]	EC50 [22]	also measured
COC(=O)N[C@H](C(=O)N[C@@H](Cc1ccccc1)[C@@H](O)CN(Cc1ccc(-c2ccccn2)cc1)NC(=O)[C@@H](NC(=O)OC)C(C)(C)C)C(C)(C)C [ATAZANAVIR]	2.1 nM	56 nM	81 nM	> 211 nM	450 nM	38.8 nM	19.4 nM	24	20	>78	174	14	7	323 nM	> 1000 nM	77	>370	–	–	–	–
CC(C)CN(C[C@@H](O)[C@H](Cc1ccccc1)NC(=O)O[C@H]1CO[C@H]2OCC[C@H]21)S(=O)(=O)c1ccc(C(=O)O)cc1	–	–	–	–	–	–	–	–	–	–	–	–	–	–	–	–	–	–	–	–	Ki [18]: 0.0127 nM; EC50 [19]: > 10000 nM
Cc1cccc(C)c1OCC(=O)N[C@@H](Cc1ccccc1)[C@@H](O)C[C@H](Cc1ccccc1)NC(=O)[C@H](C(C)C)N1CCCNC1=O [LOPINAVIR]	7 nM	–	–	> 700 nM	> 300 nM	> 436 nM	> 160 nM	–	–	–	–	–	–	> 1000 nM	> 1000 nM	–	–	28 nM	112 nM	426 nM	EC50 [23]: 198 nM; EC50 [24]: 263 nM; EC50 [25]: 511 nM; EC50 [26]: 1600 nM; EC50 [27]: 1900 nM
CC(C)CN(C[C@@H](O)[C@H](Cc1ccccc1)NC(=O)O[C@H]1CO[C@H]2OCC[C@H]21)S(=O)(=O)c1ccc2sc(NC3CCN(C4CCCC4)CC3)nc2c1	–	–	–	–	–	–	–	–	–	–	–	–	–	–	–	–	–	26 nM	65 nM	308 nM	EC50 [23]: 312 nM; EC50 [24]: 5.1 nM; EC50 [25]: 1.5 nM; EC50 [26]: 42 nM; EC50 [27]: 68 nM; Ratio EC50 [28]: 2.5; Ratio EC50 [29]: 12; Ratio EC50 [30]: 12; Ratio EC50 [31]: 0.2; Ratio EC50 [32]: 0.058; Ratio EC50 [33]: 1.6; Ratio EC50 [34]: 2.6
CC(C)CN(C[C@@H](O)[C@H](Cc1ccccc1)NC(=O)O[C@H]1CO[C@H]2OCC[C@H]21)S(=O)(=O)c1ccc(N)cc1	3.8 nM	4.3 nM	10 nM	> 25 nM	21 nM	5 nM	7 nM	1	3	6	7	2	2	43.4 nM	255 nM	11	64	22 nM	39 nM	122 nM	EC50 [23]: 84 nM; EC50 [24]: 49 nM; EC50 [25]: 234 nM; EC50 [26]: 624 nM; EC50 [27]: 670 nM; Ratio EC50 [28]: 1.8; Ratio EC50 [29]: 5.5; Ratio EC50 [30]: 3.8; Ratio EC50 [31]: 2.2; Ratio EC50 [32]: 11; Ratio EC50 [33]: 28; Ratio EC50 [34]: 30; logP [35]: -0.63; logD [36]: -1.03
CC(C)CN(C[C@@H](O)[C@H](Cc1ccccc1)NC(=O)O[C@H]1CO[C@H]2OCC[C@H]21)S(=O)(=O)c1ccc(C(N)=O)cc1	–	–	–	–	–	–	–	–	–	–	–	–	–	–	–	–	–	–	–	–	Ki [18]: 0.0089 nM; EC50 [19]: 93 nM
COc1ccc(S(=O)(=O)N(CC(C)C)C[C@@H](O)[C@H](Cc2ccccc2)NC(=O)O[C@H]2CO[C@H]3O[C@@H]4OCC[C@@H]4[C@H]32)cc1	0.6 nM	2.1 nM	2.5 nM	2.5 nM	3.4 nM	0.8 nM	2.6 nM	4	4	4	6	1	4	5.6 nM	30 nM	9	50	–	–	–	Ki [37]: 0.0059 nM
CC[C@@H](CCC[C@@H](CO)N(CCC(C)C)S(=O)(=O)c1ccc(N)cc1)NC(=O)[C@@H](NC(=O)OC)C(c1ccccc1)c1ccccc1	–	–	–	–	–	–	–	–	–	–	–	–	–	–	–	–	–	–	–	–	AUC [38]: 1.17 µM·h; half-life [39]: 2.13 h; clearance [40]: 48.5 mL/min/kg; clearance [41]: 10.1 mL/min/kg; half-life [42]: 7.4 h
Cn1c(=O)c2c(ncn2C)n(C)c1=O [CAFFEINE]	–	–	–	–	–	–	–	–	–	–	–	–	–	–	–	–	–	–	–	–	Papp at 0.5 h [43]: 100 ×10⁻⁶ cm/s
